We go through four substances from paper PMC11608315, “Subtilase SBT5.2 inactivates flagellin immunogenicity in the plant apoplast” (Nature Communications, 2024).

No end group written: not given here.

Data set [1] concerns subtilases (SBTs), papain-like Cys proteases (PLCPs) and metalloproteases in AF. Description: QP processing in AF of leaves expressing protease inhibitors Epi1, SlCys8 or HsTIMP. Format: biochemical, Nicotiana benthamiana. The note with it: AF from leaves transiently expressing Epi1 (HsTIMP for comparison); EV = 100%; n = 3; Fig. 3a. On the procedure: (§1) Agrobacterium tumefaciens GV3101 (pMP90) was used for agroinfiltration of N. benthamiana. Agrobacteria were grown overnight in Luria-Bertani (LB) medium with 10 μg/ml gentamycin and 50 μg/ml kanamycin at 28 °C. For transient expression of proteins in N. benthamiana, overnight cultures of Agrobacterium carrying binary vectors listed in Supplementary Table 1 were harvested by centrifugation. Bacterial cells were resuspended in agroinfiltration buffer (10 mM MgCl2, 10 mM MES pH 5.6, 150 μM acetosyringone) and mixed (1:1) with agrobacteria carrying the silencing inhibitor p19 at an OD600 of 0.5. After 1 h at 28 °C, cells were infiltrated into leaves of 4-week-old N. benthamiana. The infected plants were grown in a growth chamber until use.
The quenched peptides (QPs) from flagellin were commercially synthesised with a DABCYL N-terminal modification and a Glu-EDANS C-terminal modification (GenScript, Piscataway, New Jersey, United States) at a purity of 95% (Supplementary Table 2). They were resuspended in DMSO at a concentration of 1 mM. […] AFs or purified SBT5.2a were mixed with QPs at a final concentration of 10 µM in a volume of 100 µl, and fluorescence was measured immediately at 21 °C using an Infinite M200 plate reader (Tecan, Mannedorf, Switzerland) every minute over 5 min with an excitation wavelength of 335 nm and emission wavelength of 493 nm. […]

Data set [2] concerns AF of sbt5.2 mutant N. benthamiana. It counts as in vitro ADME, Nicotiana benthamiana. The note with it: 10 µM QP; n = 4; Fig. 5b. On the procedure: (§2) The quenched peptides (QPs) from flagellin were commercially synthesised with a DABCYL N-terminal modification and a Glu-EDANS C-terminal modification (GenScript, Piscataway, New Jersey, United States) at a purity of 95% (Supplementary Table 2). They were resuspended in DMSO at a concentration of 1 mM. This stock solution was further diluted in water to a concentration of 200 µM. AFs or purified SBT5.2a were mixed with QPs at a final concentration of 10 µM in a volume of 100 µl, and fluorescence was measured immediately at 21 °C using an Infinite M200 plate reader (Tecan, Mannedorf, Switzerland) every minute over 5 min with an excitation wavelength of 335 nm and emission wavelength of 493 nm.
(§3) N. benthamiana leaves were submerged in ice-cold water and vacuum infiltrated in a 50 ml syringe with a plunger. The surface of water-infiltrated leaves was dried with absorbing paper and leaves were carefully inserted into an empty 20 ml syringe, which was placed in a 50 ml tube. AFs were collected by centrifugation at 2000 × g at 4 °C for 10 min. AFs were immediately used or frozen using liquid nitrogen and stored at −20 °C until use.

Data set [3] is described as follows: Solubility of quenched peptide (observation on dissolving the powder). The note with it: noticed when dissolving the peptide powder; response to reviewers. Format: physicochemical.
Data set [4] deals with SBT5.2, SBT1.9a, SBT1.7a, SBT1.7c in AF. Put plainly: QP processing in AF of plants silenced for subtilases (VIGS). The note with it: 10 µM QP; TRV::GFP = 100%; n = 3 plants; Fig. 4a. It counts as in vitro ADME, Nicotiana benthamiana. On the procedure:
as §2
(§4) Agrobacterium cultures were grown overnight and resuspended in an agroinfiltration buffer at OD600 = 0.5. Agrobacteria carrying binary plasmids for expressing RNA2 of TRV-carrying silencing fragments (Supplementary Table 1) were mixed 1:1 with Agrobacteria containing TRV1[38]. After incubation for 1 h at 21 °C, the mixed cultures were infiltrated into the leaves of 14-day-old N. benthamiana plants. The infiltrated plants were grown for another 4 to 5 weeks in a growth chamber until use.
N. benthamiana leaves were submerged in ice-cold water and vacuum infiltrated in a 50 ml syringe with a plunger. […]

In data set [5] the test system is purified SBT5.2a-His. Description: QP cleavage by purified SBT5.2a-His (fluorescence). Format: biochemical, Nicotiana benthamiana. The note with it: 10 μl of 25 μg/ml SBT5.2a-His, 10 µM QP; n = 4; Fig. 6a. On the procedure:
as §2
(§5) Four-week-old N. benthamiana leaves were infiltrated with a 1:1 mixture (final OD600 = 0.5 for each) of Agrobacterium tumefaciens GV3101 containing the silencing suppressor P19 and pPB097[22]. Apoplastic fluid containing SBT5.2a-His was extracted 6 days after infiltration as described above and purified as previously described[40],[41]. Briefly, SBT5.2a-His was purified by HisPur™ Ni-NTA resin and concentrated in 25 mM Tris-HCl pH = 6.8 using a 50 kDa MWCO Amicon Ultra-15 filter.

For data set [6], the system named is apoplastic proteases in apoplastic fluids (AF) of N. benthamiana. Description: Residual immunogenicity (ROS assay) after incubation of elicitor in AF of WT plants. Format: in vitro ADME, Nicotiana benthamiana. Conditions: ROS read-out, n = 6. On the procedure: as §3
(§6) ROS assays were performed as described previously. Briefly, after incubation in water overnight, one leaf disc (6 mm diameter) was added to 100 µl solution containing 25 ng/µl luminol, 25 ng/µl Horse Radish Peroxidase (HRP) and specified elicitor treatments. For assays with treated elicitors, elicitor peptides or purified flagellin were incubated in AFs from N. benthamiana leaves (wild-type, agroinfiltrated, VIGS-silenced or sbt5.2 mutants) or purified SBT5.2a-HIS for the specified time at 21 °C. After incubation, 25 ng/µl luminol and 25 ng/µl HRP were added to the AFs. Chemiluminescence was measured immediately with the Infinite M200 plate reader (Tecan, Mannedorf, Switzerland) every minute for one hour. Standard errors were calculated at each time point and for each treatment.

The subject of data set [7] is subtilases in AF of N. benthamiana. Put plainly: Residual immunogenicity (ROS assay) after incubation in AF of leaves transiently expressing Epi1 or empty vector. Format: in vitro ADME, Nicotiana benthamiana. The note with it: 10 µg/ml monomeric flagellin or 100 nM flg22, 40 min in AF; ROS read-out, n = 6; Fig. 3b. On the procedure: as §1
N. benthamiana leaves were submerged in ice-cold water and vacuum infiltrated in a 50 ml syringe with a plunger. The surface of water-infiltrated leaves was dried with absorbing paper and leaves were carefully inserted into an empty 20 ml syringe, which was placed in a 50 ml tube. AFs were collected by centrifugation at 2000 × g at 4 °C for 10 min. […]
ROS assays were performed as described previously. […] Chemiluminescence was measured immediately with the Infinite M200 plate reader (Tecan, Mannedorf, Switzerland) every minute for one hour. Standard errors were calculated at each time point and for each treatment.

The next data set relates to SBT5.2 subtilases in AF. Description: Residual immunogenicity (ROS assay) after incubation in AF of TRV::SBT5.2 or TRV::GFP plants. It counts as in vitro ADME, Nicotiana benthamiana. The note with it: 100 nM flg22, 0, 30, 60 min in AF; ROS read-out, n = 6; Fig. 4b. On the procedure: as §4, §3
ROS assays were performed as described previously. Briefly, after incubation in water overnight, one leaf disc (6 mm diameter) was added to 100 µl solution containing 25 ng/µl luminol, 25 ng/µl Horse Radish Peroxidase (HRP) and specified elicitor treatments. […] Chemiluminescence was measured immediately with the Infinite M200 plate reader (Tecan, Mannedorf, Switzerland) every minute for one hour. Standard errors were calculated at each time point and for each treatment.

Data set [8] deals with AF of sbt5.2 mutant N. benthamiana. It counts as in vitro ADME, Nicotiana benthamiana. Conditions: 100 nM flg22, 30 min in AF; ROS read-out, n = 6; Fig. 5c. On the procedure: as §3, §6
Data set [9] relates to purified SBT5.2a-His. Description: Residual immunogenicity (ROS assay) after incubation with purified SBT5.2a-His. Conditions: 50 nM flg22, 10 μg/ml SBT5.2a-His, 40 min; ROS read-out, n = 6; Fig. 6b. It counts as biochemical, Nicotiana benthamiana. On the procedure:
as §5, §6

The subject of data set [10] is leaf discs of WT or sbt5.2 mutant N. benthamiana. Put plainly: ROS burst assay on sbt5.2 mutant versus WT leaf discs (timing, dose response). It counts as cell-based, Nicotiana benthamiana. Conditions: n = 12; Fig. 5e, 5f. On the procedure: as §6
Another data set concerns FLS2. Conditions: microsomal fractions that presumably lack subtilases; read-out: IC50, competition with binding by radiolabeled flg22; cited from earlier work. The source says:
However, although flagellin can bind FLS2, it is unclear at this stage if it would also activate FLS2 signalling because that would require subsequent BAK1 binding to FLS2. The extension of flg22 at its C-terminus is likely to obstruct BAK1 binding, based on the structure of flg22 bound to the FLS2 and BAK1[34].

On to “LQIA ↓ TKITS [QP4, custom-synthesised quenched peptide with flg22-flanking site LQIA ↓ TKITS, DABCYL and Glu-EDANS]”, for which the “QP processing in AF containing Epi1” value in data set [1] is given as “near complete blockage”. Besides, the “QP processing in AF of sbt5.2 mutant plants versus WT” value in data set [2] was “strongly reduced but not significant”. Further, in data set [3], the solubility result is recorded as “problematic”.

Turning to “SAKDDAAG [QP3, custom-synthesised quenched peptide with cleavage site SAKD ↓ DAAG within flg22, DABCYL and Glu-EDANS]”, the “QP processing in AF containing Epi1” value in data set [1] is given as “suppressed more by Epi1 than by HsTIMP”. In addition, in data set [4], the “QP processing in AF of TRV::SBT1.9a and TRV::SBT1.7a plants” value is listed as “also reduced”; the “QP processing in AF of TRV::SBT5.2 plants compared to TRV::GFP control” value is given as “not as strongly reduced”. Moreover, the “QP processing in AF of sbt5.2 mutant plants versus WT” value in [2] is given as “only slightly reduced”. For the same substance, in the data set on purified SBT5.2a-His [5], the “cleavage by purified SBT5.2a-His” value was “hardly cleaved”.

With “TRLSSGLKINSAKDDAAGLQIA [flg22, reference compound]”, the “immunogenicity after incubation in AF of WT plants” value in data set [6] (100 nM flg22, 30 min in AF, Fig. 5c) was “quickly lost”. The “immunogenic activity after incubation in AF from leaves expressing Epi1” value in [7] is on record as “immunogenic activity was detected”. Further, the “decline of immunogenicity in AF of TRV::SBT5.2 compared to TRV::GFP plants” value with SBT5.2 subtilases in AF is given as “much slower”. Moreover, in [8], the “immunogenicity after incubation in AF of sbt5.2 plants” value was “retains immunogenicity significantly longer”. In addition, in the data set with purified SBT5.2a-His [9], the “elicitor activity after incubation with purified SBT5.2a-His” value was “inactivated its elicitor activity”.

As for flagellin, the “timing and amplitude of oxidative burst, WT versus sbt5.2 mutant leaf discs” value in [10] was “similar”. Also, the “oxidative burst after incubation with AF” value in data set [6] (10 µg/ml monomeric flagellin incubated with AF for 30 or 60 min, 21 °C, Fig. 1e) was “quickly disappears”. Moreover, the “immunogenic activity after incubation in AF from leaves expressing Epi1” value in data set [7] is “immunogenic activity was detected”. In addition, the IC50 in the data set on FLS2 is 120 nM.

What is called IC50 is the concentration needed to halve the response being measured.
